Earlier results in patent US20090236541A1, “System and Methods for Optical Imaging” (General Electric Company, priority 2008, published 2009).

What was measured:
[1] = small molecule form
[2] = test system: heart of a living laboratory rat; details: living laboratory rat after a thoracotomy
[3] = test system: mitochondria and/or the endoplasmic reticulum; details: concentration-dependent manner

**Q.** Which solubility in blood [1] does the source give for `CC1(C)C(/C=C/C=C/C=C/C=C2\N(CCCCS(=O)(=O)O)c3ccc4ccccc4c3C2(C)C)=[N+](CCCCS(=O)(=O)[O-])c2ccc3ccccc3c21` [Indocyanine green, indocyanine green] here?
**A.** somewhat less soluble in blood

**Q.** What does the source list for `CN1C(=CC=C2CCCC(C=CC3=[N+](C)c4ccccc4C3(C)C)=C2Cl)C(C)(C)c2ccccc21.[O-][Cl+3]([O-])([O-])[O-]` [IR-786]?
**A.** imaging of blood flow in the heart [2]: successfully applied; partitioning into mitochondria and/or endoplasmic reticulum [3]: partitions efficiently into mitochondria and/or the endoplasmic reticulum
